Results from PMC8213385, “Development of a Fluorescent Assay to Search New Drugs Using Stable tdTomato-Leishmania, and the Selection of Galangin as a Candidate With Anti-Leishmanial Activity” (Frontiers in Cellular and Infection Microbiology, 2021).
Like-named read-outs stand apart in the source and are kept apart here.

Columns and labels:
[1] = tested on: intracellular amastigotes of L. amaz/tc3; test: Fluorescence assay in the macrophage-amastigote model (Raw 264.7 infected with L. amaz/tc3); assay type: cell-based, Leishmania (Leishmania) amazonensis
Procedure: (§1) Furthermore, the efficacy of MI was also determined against intracellular amastigotes of L. amaz/tc3 and L. amaz/wt. Raw 264.7 macrophages were plated in 96-well black plate (5 x 10^4 cells/well) and in eight well Lab-Tek tissue culture slides (6.6 x 10^4 cells/ml) (Nunc, USA). The cells were infected with promastigotes in stationary phase of L. amaz/tc3 and L. amaz/wt (1:20 ratio) at 33°C, 5% CO2. After incubation, the infected macrophages were washed to remove non-internalized parasites with PBS plus P-S. New RPMI-1640 medium with different concentrations of MI (20 to 0.62 µg/ml) was added to each well and incubated at 33°C, 5% CO2 during 48 h. The anti-leishmanial activity of MI was determined by measuring the fluorescence of intracellular amastigotes of L. amaz/tc3 in a plate reader (Tecan, Männedorf, Switzerland). The viability was calculated as mentioned above, and the IC50 was also estimated. Simultaneously, the leishmanicidal activity of MI against L. amaz/wt was determined by the microscopy test. In this case, the infected macrophages were stained with Diff Quik (Biopur S.R.L., Rosario, Argentina) and the number of intracellular amastigotes was determined in 200-500 macrophages in treated and control cultures per slide under the immersion lens microscope (100x) (Leitz Wetzlar, Germany). The infection index (II) and the % infectivity (I) were calculated by the following formulas: II = IM × A, where IM= infected macrophages (%), A= number of amastigotes per infected macrophages; and I(%)=IIT/IIc×100, where IIT= infection index in treated cultures, IIC= infection index in control cultures ([Ayres et al., 2008]). The IC50 of MI was calculated.
The flavonoids anti-leishmanial activity was also evaluated against intracellular amastigotes. Macrophages (Raw 264.7) were plated in 96-well black plate (5 x 10^4 cell/well) and infected with promastigotes in stationary phase of L. amaz/tc3 (1:20 ratio) at 33°C, 5% CO2. After incubation, the infected macrophages were washed to remove non-internalized parasites with PBS plus P-S. New RPMI-1640 medium with different concentrations of GAL (30 to 3.75 µM), MO (300 to 37.5 µM), FI (65 to 8.12 µM), RU (300 to 37.5 µM) and EGCG (30 to 7.5 µM) was added to each well and incubated at 33°C, 5% CO2 for 48 h. Infected cells treated with Ma (136.6 to 34.1 µM) were the positive controls, and cells incubated only with RPMI-1640 were the negative control. The infected macrophages were incubated during 48 h at 33°C, 5% CO2. After treatment, the fluorescence of intracellular amastigotes of L. amaz/tc3 was measured in a plate reader (Tecan, Männedorf, Switzerland). The viability was determined as was described for MI (fluorescent assay). The selectivity index (SI) (CC50 for macrophages/IC50 for Leishmania) was calculated.

L. amaz/tc3 = test: Efficacy of Ma in BALB/c mice infected with L. amaz/tc3; assay type: in vivo
Procedure: Female BALB/c mice were infected in their hind right footpad with the stationary phase of promastigotes (5 x 10^6 parasites/0.05 ml) of L. amaz/tc3. Once a week the footpad swelling was measured with the digital caliper. Mice (n = 5) were treated with Ma in PBS (120 mg Sb/kg/day) starting at week 9 post-infection; the antimonial was administered by intraperitoneal injection (ip) once a day for 21 days. Control group (n = 5) received only PBS (ip). Within a week of finishing the Ma treatment, the parasite load was quantified by three methods, fluorescence (FL), optic microscope (OM) and limiting dilution assay (LD) in treated and control group. The FL method was carried out as follows, the hind right footpad was excised and weighed; then the tissue was homogenized using a glass grinder with 5 ml of complete RPMI-1640 medium and the intracellular amastigotes of L. amaz/tc3 were released. A sample (0.1 ml) of the homogenate was centrifuged to replace the medium for PBS, then it was plated in duplicates in a 96-well black culture plate with clear bottom (Nunc, USA) and the fluorescence was measured in a plate reader (Tecan, Männedorf, Switzerland). Besides, a calibration curve was used to extrapolate the sample fluorescence to the number of amastigotes. For that, a pool of amastigotes from control samples was used; amastigotes (1 x 10^6 to 1.5 x 10^4) were plated in duplicates in a 96-well black culture plate with clear bottom, and the fluorescence was measured in a plate reader (Tecan, Männedorf, Switzerland). The number of amastigotes was adjusted to the weight of the sample.
Another sample of the tissue homogenate was used to quantify the parasite loads by direct counting in a Neubauer chamber under an optical microscope (40X) (Leitz Wetzlar, Germany), and the concentration of parasites (amastigotes/ml) of each homogenate was determined ([Hill et al., 1983]). The total number of parasites was adjusted to the weight of each tissue sample.
Finally, a sample of the tissue homogenate was also used to quantify the parasite loads by the LD assay ([Lima et al., 1997]). After serial dilutions in 96-well plates, the samples were incubated at 23°C for 14 days and the number of viable promastigotes was determined from the highest dilution at which the parasite could grow.

[2] = Cytotoxicity in macrophage cell line by the MTT method (colorimetric); assay type: cell-based; settings: mouse
Procedure: The cytotoxicity against a cell line of macrophages (Raw 264.7) of GAL, MO, FI, RU, EGCG, PE, MI and MA was determined by the MTT method. Cells (3.3 x 10^5/ml) cells were treated with different concentrations of each compound during 48 h at 37°C, 5% CO2. The controls were incubated with RPMI-1640 medium. Briefly, 50 µl of MTT (2 mg/mL) was added to each well and, after 4 h of incubation at 37°C, 5% CO2, the reaction was stopped dissolving the formazan crystals with 100 µl/well of dimethyl sulfoxide. The relative amount of formazan produced by viable macrophages was determined using a spectrophotometer at 595 nm. The percentage of viable cells was calculated according to the formula (OD treated culture−OD blank)/(OD control−OD blank) ×100 as was described previously ([Adinehbeigi et al., 2017]). The cytotoxicity concentration 50% (CC50) was calculated for each compound.

[3] = tested on: intracellular amastigotes of L. (L.) amazonensis; test: Microscopic assay, counting intracellular amastigotes in Raw 264.7 macrophages at the optic microscope; assay type: cell-based, Leishmania (Leishmania) amazonensis; settings: for SI (Selectivity index): CC50 for macrophages/IC50 for Leishmania (intracellular amastigotes; Ma from fluorescence IC50); for IC50: Leishmania amazonensis, RAW264.7, Raw 264.7 macrophages, 48 h, optic microscope, read-out: Microscopic IC50 μM (SE), intracellular amastigotes
Procedure: as §1
Then, to estimate the IC50 values of GAL, FI and MO; and to confirm the IC50 of RU, the activity was evaluated quantifying the intracellular amastigotes at the optic microscope. We followed the same methodology described for MI (microscopic assay) in “In Vitro, Fluorescent Assay Validation” section and the range of concentrations were for GAL (30 to 7.5 µM), FI (60 to 15 µM), RU and MO (200 to 50 µM), EGCG (142 a 17.7 µM).

[4] = tested on: promastigotes of L. amaz/tc3; test: Fluorescence assay against promastigotes of L. amaz/tc3 (tdTomato); assay type: cell-based, Leishmania (Leishmania) amazonensis; settings: 48 h; for Inhibition of parasite growth (promastigotes): doses ≤ 40 µM, fluorescence assay; for IC50: Leishmania
Procedure: Then, we evaluated the efficacy of MI, a reference drug for leishmaniasis by the fluorescence method (L. amaz/tc3) and by the conventional method based in counting the parasite at the optic microscope (L. amaz/wt). Mid-log promastigotes of L. amaz/tc3 and L. amaz/wt were harvest and seeded (1 x 10^6/0.1 ml) with different concentrations of MI (40 to 0.6 µg/ml) in a 96-well plate at 23°C. Promastigotes cultured only in medium were the controls. Parasite viability was determined by measuring the fluorescence of L. amaz/tc3 in a plate reader (Tecan, Männedorf, Switzerland) and by counting the mobile promastigotes in a Neubauer chamber at the optic microscope (40x) (Leitz Wetzlar, Germany) at 48 h of incubation with MI. Viability was calculated with the formula: ViabilityL.amaz/tc3 =FLt/FLc×100 where, FLt is the fluorescence of treated culture, and FLc is the fluorescence of control; ViabilityL.amaz/wt=NPt/NPc×100 where, NPt is the number of promastigotes in the treated culture, and NPc is the number of promastigotes in control culture. Then, the 50% inhibitory concentration (IC50) of MI was estimated.
After fluorescence assay validation as it is described above, the method was used to evaluate in vitro the flavonoids anti-leishmanial activity. Mid-log promastigotes of L. amaz/tc3 were harvest and seeded with different concentrations of GAL (1,200 to 18.75 µM), MO, FI and RU (40 to 1.25 µM), and EGCG (300 to 18.75 µM). Positive control were promastigotes treated with PE (4 to 0.25 µM), the negative control were promastigotes cultured with medium only, and the blank was the culture medium. The parasites were incubated at 23°C for 48 h. The anti-leishmanial activity was determined by measuring the parasite fluorescence in a plate reader (Tecan, Männedorf, Switzerland). The viability was estimated as was described above for MI (fluorescent assay). The IC50 was calculated for each compound.

[5] = tested on: promastigotes of L. amaz/tc3; test: Transmission electron microscopy of treated promastigotes; assay type: cell-based, Leishmania (Leishmania) amazonensis; settings: exposed to the IC50, 48 h
Procedure: Ultrastructural alterations in Leishmania induced by flavonoids with anti-leishmanial activity were analyzed by transmission electron microscopy (TEM). […] The control was a culture of L. amaz/tc3 incubated in complete RPMI-1640 medium. After 48 h of incubation, samples of L. amaz/tc3 promastigotes from each culture were fixed in modified Karnovsky’s solution (formaldehyde [2.66%], glutaraldehyde [1.66%]) and PBS 0.1M (pH 7,4), and incubated overnight at 4°C. The fixed samples were post-fixed with a 1/1 solution of PBS/2% osmium tetroxide (OsO4), overnight. Then the material was dehydrated and included in Spurr (Pelco, USA). Ultrathin sections were cut with an ultramicrotome (MT1, Sorvall, USA), mounted on copper grids, and contrasted with uranyl acetate (PELCO, USA) and lead citrate.

[6] = tested on: amastigotes of L. (L.) amazonensis; set-up: method as in Escobar et al., 2002; Morais-Teixeira et al., 2011; settings: published data ref Escobar et al., 2002; Morais-Teixeira et al., 2011; cited from earlier work
[7] = tested on: promastigotes of L. (L.) amazonensis; set-up: method as in Escobar et al., 2002; Morais-Teixeira et al., 2011; settings: published data ref Escobar et al., 2002; Morais-Teixeira et al., 2011; cited from earlier work
[8] = 120 mg Sb/kg/day ip, 21 days, week 13, footpad
[9] = Raw 264.7 macrophage cell line, Raw 264.7, MTT, 48 h, read-out: Colorimetric CC50 μM (SE)
[10] = read-out: IC50 against promastigotes of L. amaz/tc3

Compound: Meglumine antimoniate [Ma]
- IC50 ([1]; Raw 264.7 macrophages, 48 h, 33°C, read-out: Fluorescence IC50 μM (SE), intracellular amastigotes): 80.3 µM
- Inhibition of parasite burden, fluorescence method (FL) (L. amaz/tc3; [8]): 55%
- Inhibition of parasite burden, limiting dilution (LD) assay (L. amaz/tc3; [8]): 54%
- Inhibition of parasite burden, optic microscope (OM) (L. amaz/tc3; [8]): 75%
- Footpad swelling versus control group (L. amaz/tc3; 120 mg Sb/kg/day ip, week 13, p < 0.05): significant difference
- Percentage of inhibition in the parasite load, fluorescence and LD assay (L. amaz/tc3; end of treatment, both methods): 54-55%

Compound: C[C@@H]1O[C@@H](OC[C@H]2O[C@@H](Oc3c(-c4ccc(O)c(O)c4)oc4cc(O)cc(O)c4c3=O)[C@H](O)[C@@H](O)[C@@H]2O)[C@H](O)[C@H](O)[C@H]1O [RU, rutin]
- CC50 at 48 h [2]: > 240 µM
- SI (Selectivity index) [3]: > 1.8
- IC50 [3]: 133 µM
- IC50 ([1]; Leishmania, RAW264.7, 48 h, read-out: Fluorescence IC50 μM (SE), intracellular amastigotes): 171 µM
- Inhibition of parasite growth (promastigotes) [4]: no inhibition

Compound: O=c1c(O)c(-c2ccc(O)c(O)c2)oc2cc(O)ccc12 [FI, fisetin]
- CC50 at 48 h [2, 9]: 52.6 µM
- SI (Selectivity index) [3]: < 1
- IC50 [3]: > 60 µM
- Fluorescence Inhibition (%) of amastigotes ([1]; 15 µM, 48 h): 31%
- inhibition at 15 µM ([1]; Leishmania, RAW264.7, 48 h, read-out: Fluorescence Inhibition (%) of amastigotes, 15 µM, 48 h): 29 to 31%
- Inhibition of parasite growth (promastigotes) [4]: no inhibition

Compound: N=C(N)c1ccc(OCCCCCOc2ccc(C(=N)N)cc2)cc1 [PE, Pentamidine isethionate, reference compound]
- IC50 [4, 10]: 0.67 ± 0.18 µM

Compound: O=C(O[C@@H]1Cc2c(O)cc(O)cc2O[C@@H]1c1cc(O)c(O)c(O)c1)c1cc(O)c(O)c(O)c1 [EGCG, (-)-epigallocatechin gallate, reference compound]
- CC50 at 48 h [2, 9]: 194 µM
- SI (Selectivity index) [3]: 1.5
- IC50 [3]: 130 µM
- Ultrastructural alterations in promastigotes (TEM) [5]: intense cytoplasmic vacuolization
- IC50 [4, 10]: 120 ± 17.6 µM

Compound: CCCCCCCCCCCCCCCCOP(=O)([O-])OCC[N+](C)(C)C [MI, Miltefosine, reference compound]
- Effective dose for amastigotes [6]: 1.31 µg/mL
- IC50 ([1]; Leishmania, RAW264.7, 48 h, read-out: IC50 against intracellular amastigotes): 1.65 ± 0.75 µg/mL
- Effective dose for promastigotes [7]: 7.54 µg/mL
- IC50 ([4]; read-out: IC50 against promastigotes): 5.25 ± 0.05 µg/mL

Compound: O=c1c(O)c(-c2ccc(O)cc2O)oc2cc(O)cc(O)c12 [MO, morin]
- CC50 at 48 h [2, 9]: > 230 µM
- SI (Selectivity index) [3]: > 1.8
- IC50 [3]: 122 µM
- inhibition at 37.5 µM ([1]; Leishmania, RAW264.7, 48 h, read-out: Fluorescence Inhibition (%) of amastigotes, 37.5 µM, 48 h): 13.5%
- Inhibition of parasite growth (promastigotes) [4]: no inhibition
